Measurements taken from US20080161393A1, “Use of prodrugs of GABA analogs for treating disease” (priority 2006, published 2008).

What was measured:
[1] = Randomized, crossover, fed/fasted single-dose pharmacokinetic study of oral sustained release tablets of compound (3) in healthy adult subjects; assay type: in vivo, human
Procedure: A randomized, crossover, fed/fasted single-dose study of the safety, tolerability, and pharmacokinetics of oral administration of 1-{[(α-isobutanoyloxyethoxy)carbonyl]aminomethyl}-1-cyclohexane acetic acid (3) in healthy adult subjects was conducted. The oral sustained release dosage form of Example 6 (uncoated) was used in this study. The study was designed to evaluate the performance of this formulation in humans in comparison with the commercial gabapentin capsule formulation (Neurontin®, Pfizer). Twelve healthy adult volunteers (7 males and 5 females) participated in the study. Mean body weight was 75.6 kg. All subjects received two different treatments in a random order with a one-week washout between treatments. The two treatments were: A) a single oral dose of Example 6 tablets (2×600 mg) after an overnight fast; and B) a single oral dose of Example 6 tablets (2×600 mg) after a high fat breakfast.
Blood and plasma samples were collected from all subjects prior to dosing, and at 0.5, 1, 1.5, 2, 3, 4, 6, 8, 12, 18, 24, and 36 hours after dosing. Urine samples were collected from all subjects prior to dosing, and complete urine output was obtained at the 0-4 h, 4-8 h, 8-12 h, 12-18 h, 18-24 h, and 24-36 h intervals after dosing. Blood samples were quenched immediately with methanol and stored frozen at […]. Sample aliquots were prepared for analysis of gabapentin and compound (3) using sensitive and specific LC/MS/MS methods.

[2] = cited from earlier work

Structure (SMILES)	AUC of compound (3) in blood as % of corresponding AUC of gabapentin in blood ([1]; fasted subjects) [%]	Maximum intact compound (3) concentration as % of corresponding peak gabapentin concentration ([1]; fasted subjects)	AUC of compound (3) in blood as % of corresponding AUC of gabapentin in blood ([1]; fed subjects)	Maximum intact compound (3) concentration as % of corresponding peak gabapentin concentration ([1]; fed subjects)	Typical Tmax of immediate release gabapentin [2] [h]
CC(OC(=O)NCC1(CC(=O)O)CCCCC1)OC(=O)C(C)C (stereo not drawn) [compound (3), 1-{[(α-Isobutanoyloxyethoxy)carbonyl]aminomethyl}-1-Cyclohexane Acetic Acid]	0.3	approximately 1.0%	less than 0.1%	approximately 0.3%	
NCC1(CC(=O)O)CCCCC1 [gabapentin]					2 to 4
